Data set [1] has as its system CD4+ CD62L+CD45RO- T cells. As to the kind of experiment: In vitro differentiation of human naive CD4+ T cells, suppression and real time PCR. Type of data set: cell-based. To be noted: 5 days activation with antibodies to CD3 and CD28; TGFb1 2.5 ng/ml or TCDD alone. The procedure:
To investigate the potential of AHR targeting for the induction of human Treg we activated purified naïve CD4^+ CD62L^+CD45RO^− T cells for healthy donors for 5 days with antibodies to CD3 and CD28 in the presence of TCDD 100 nM or TGFb1 2.5 ng/ml or both.
To study the functionality of the putative human Treg induced in the presence of TCDD we studied their suppressive activity of CD4^+ CD25^High and CD4^+CD25^Low T cells following 5 days of activation in the of TCDD or TGFb1 2.5 ng/ml or both.
To investigate the mechanism mediating the suppressive activity of the TCDD-induced Treg, we analyzed them by real time PCR for the expression of several genes that have been previously linked to the suppressive function of Treg. […] Accordingly, IL-10-specific blocking antibodies could interfere with the suppressive activity of Treg induced with TCDD, but not the of those induced with TGFb1 and TCDD (FIG. 42). Thus, TCDD-induced CD4^+CD25^High T cells are FoxP3^− regulatory cells whose suppressive activity is mediated, at least partially, via IL-10, resembling the phenotype of type 1 Treg (Roncarolo et al., Immunol Rev. 212, 28 (2006); Roncarolo and Gregori, Eur J Immunol. 38, 925 (2008)).
(Real-time PCR tracks product formation cycle by cycle.)

In data set [2] the test system is C57BL/6 mice. The data set can be described thus: EAE induced by immunization with MOG35-55 in CFA. Type of data set: in vivo, mouse.
For data set [3] the following is noted: compared with toxic effects reported for TCDD; cited from earlier work.
In data set [4] the target is T1, AHR (Homo sapiens, UniProt P35869).
T1 sequence (P35869 11-848): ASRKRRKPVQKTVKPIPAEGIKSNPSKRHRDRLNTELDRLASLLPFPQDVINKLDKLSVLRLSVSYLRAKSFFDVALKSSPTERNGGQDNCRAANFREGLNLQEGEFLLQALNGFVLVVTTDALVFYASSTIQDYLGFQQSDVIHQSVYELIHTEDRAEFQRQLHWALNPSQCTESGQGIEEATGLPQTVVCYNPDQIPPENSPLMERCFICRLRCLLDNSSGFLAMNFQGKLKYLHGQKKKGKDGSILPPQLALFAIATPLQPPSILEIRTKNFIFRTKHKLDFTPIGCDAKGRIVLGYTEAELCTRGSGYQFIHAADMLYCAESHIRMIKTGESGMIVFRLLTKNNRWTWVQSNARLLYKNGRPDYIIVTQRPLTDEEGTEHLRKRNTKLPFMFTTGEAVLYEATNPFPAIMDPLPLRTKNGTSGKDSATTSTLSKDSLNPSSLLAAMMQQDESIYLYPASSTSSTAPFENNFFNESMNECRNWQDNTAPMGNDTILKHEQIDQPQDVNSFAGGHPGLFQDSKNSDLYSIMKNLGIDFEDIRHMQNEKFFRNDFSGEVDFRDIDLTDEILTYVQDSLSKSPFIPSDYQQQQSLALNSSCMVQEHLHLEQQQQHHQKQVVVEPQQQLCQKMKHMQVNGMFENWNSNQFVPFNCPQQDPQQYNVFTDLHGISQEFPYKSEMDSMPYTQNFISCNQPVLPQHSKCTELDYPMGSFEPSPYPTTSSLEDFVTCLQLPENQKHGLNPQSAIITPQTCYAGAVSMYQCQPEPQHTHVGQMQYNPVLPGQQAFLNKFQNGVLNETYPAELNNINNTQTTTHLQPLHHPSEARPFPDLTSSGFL
The following applies: cited from earlier work.

Data set [5] deals with CD4+Foxp3:GFP+ Treg. As to the kind of experiment: Treg suppressive activity assay. It counts as cell-based, mouse. To be noted: resveratrol treated cells. The protocol:
Cells were cultured in serum-free X-VIVO 20™ media (BioWhittaker, Walkersville, Md., USA) for 72 hours. During the last 16 hours, cells were pulsed with 1 μCi of [^3H]thymidine (PerkinElmer, Waltham, Mass., USA) followed by harvesting on glass fiber filters and analysis of incorporated [^3H]thymidine in a beta-counter (1450 Microbeta, Trilux, PerkinElmer). Alternatively, culture supernatants were collected […] activation and the cytokine concentration was determined by ELISA using antibodies for IFN-γ, IL-17, IL-4, IL-10 from BD Biosciences and antibodies to TGF-β from R&D Systems. For suppression assays, MACS purified CD4^+CD25^− T cells from naïve C57BL/6 mice (1-5×10^4 cells/well) were stimulated with antibodies to CD3 and C57BL/6 irradiated spleen cells (0.3-1.5×10^4 cells/well) for 3 days in the presence of different ratios of CD4^+ GFP^+ retrovirus-transduced T cells.
To investigate the active suppression of MOG35-55-specific Teff by Treg, Foxp3^gpf knock in mice were immunized with MOG35-55/CFA, treated daily with intreaperitoneal ITE ([…]) and the recall response to MOG35-55 and a mitogenic antibody to CD3 antibody was studied on FACS-sorted CD4^+ T cells and CD4^+ FoxP3:GFP− Teff. […] This suppressed response to MOG35-55 was lost upon removal of the CD4^+FoxP3:GFP^+ Treg (FIG. 26). To further analyze the MOG35-55-specific suppressive activity of the CD4^+FoxP3:GFP^+ Treg, they were cocultured at different ratios and assayed for the suppression of MOG35-55 or anti-CD3-triggered proliferation of CD4^+FoxP3:GFP− Teff form 2D2 mice, which harbor a TCR specific for MOG35-55.

The test system of data set [6] is CD4+Foxp3:GFP- T cells. As to the kind of experiment: In vitro conversion of CD4+Foxp3:GFP- T cells into Treg. Type of data set: cell-based, mouse. The following applies: resveratrol 50 μM. The procedure:
CD4+ T cells were purified from Foxp3gfp knock in mice using anti-CD4 beads (Miltenyi, Auburn, Calif., USA) and sorted (FACSAria™ cell sorter, BD Biosciences) into naive CD4^+ Foxp3:GFP^− or CD4^+ Foxp3:GFP T cells. CD4^+ Foxp3:GFP^− T cells were stimulated with plate bound 1 μg/ml of anti-CD3 (145-2C11, eBioscience) and 2 μg/ml of anti-CD28 (37.51, eBioscience) for 5 days, supplemented with recombinant IL-2 (50 U/ml) at day 2 and 4, and analyzed by FACS at day 5 for their differentiation into […]. TGFβ1 (2.5 ng/ml) was used as a positive control.
To establish if TCDD triggered the conversion of CD4^+Foxp3^− T cells into new Foxp3^+ Treg cells, FACS sorted CD4^+Foxp3:GFP− T cells were activated in vitro with antibodies to CD3 and CD28 in the presence of TCDD, and the generation of CD4^+Foxp3:GFP^+ Treg was followed by FACS. TGFb1 was used as a positive control.

The values below come from patent publication US11253589B2, “Modulation of the immune response” (priority 2007, dated 2022).

Take “TGFb1: TGFβ1, positive control for Treg induction”: the “induction of suppressive (regulatory) T cells” value in data set [1] was “did not result in the induction of suppressive T cells”.

On to `O=Cc1c2c(cc3c1=Nc1ccccc1-3)=Nc1ccccc1-2` [FICZ, 6-formylindolo[3,2-b]carbazole], for which the EAE development result in data set [2] (AHR-ligand loaded nanoparticles, 45 femtomoles weekly starting at day 0) was “worsened the disease”.

For the compound `NCCc1c[nH]c2ccccc12` [TA, tryptamine], the toxic effects entry in data set [3] is listed as “do not display the toxic effects”. For the same compound, the AHR affinity result in data set [4] is on record as “high affinity AHR ligands”. The EAE suppression entry in data set [2] (TA combined with the monoamine oxidase inhibitor Tranylcypromine) was “effectively suppresses EAE”.

`Oc1ccc(C=Cc2cc(O)cc(O)c2)cc1` [resveratrol]: the “suppressive activity of Treg” value in data set [5] is on record as “Decreases in the suppressive activity”. Further, in data set [6], the “induction of Treg by TGFβ1 and TCDD” value is given as “interfered with the induction of Treg”.
